Data reported in patent publication US20240174603A1 (Rappta Therapeutics Oy, priority 2021, published 2024).

System: HCC1937 cells
Experiment: HCC1937 cell viability assay (MTS)
Type: cell-based
Details: Homo sapiens; HCC1937 cell line, 48 hours, MTS assay (footnote a)
Experimental: HCC1937 cells are plated in a 96 well plate format at a density of 10,000 cells per well. After incubation overnight, cells are treated with a compound (e.g., compound 263) at following concentrations: 80, 40, 20, 10, 5, 2.5, 1.25 μM. Compound concentrations are prepared in RPMI via serial dilutions from a starting stock of 80 mM. 48 hours after compound treatment, cell viability is assessed using the Promega CellTiter 96 aqueous one proliferation assay (Promega G3582, MTS assay) according to manufacturer's protocol.
The cell viability data was analyzed with GraphPad Prism software. The values were log transformed and analyzed with non-linear regression (curve-fit) using log(inhibitor) vs. response-variable slope (four parameters) and constraining the bottom to equal zero. Unless otherwise indicated, the GI50 values provided in Table 113 correspond to the LNCaP cell viability assays.

## O=S(=O)(NCC1(c2ccccc2)CCCN1)c1ccc(OC(F)(F)F)cc1 (stereo not shown) [Compound 263, N-((2-phenylpyrrolidin-2-yl)methyl)-4-(trifluoromethoxy)benzenesulfonamide]
  GI50: 75.7 µM
